Measured values reported in patent US20260344668A1, “PHENYLPYRAZOLE COMPOUND, AND PLANT DISEASE CONTROL METHOD” (priority 2022, published 2026).

Experiments:
Septoria tritici = assay: Test Example 10 Control Test Against Wheat Leaf Blotch (pot test); type: in vivo; details: 200 ppm foliage spray, wheat (Apogee), inoculated after 4 days
Protocol: (§1) The term of “non-treated well” in Test Example 4, Test Example 5, and Test Example 6 represents a well wherein a test was carried out under the same conditions as those described in each Test Example except for dispensing DMSO instead of a diluted solution with DMSO comprising the Present compound. Also, the term of “non-treated” in Test Examples 15 to 17 represents a test which was carried out under the same conditions as those described in each Test Example except for dispensing DMSO instead of a diluted solution with DMSO comprising the Present compound. Also, the term of “non-treated leaf disk” in Test Example 7 represents a leaf disk wherein a test was carried out under the same conditions as those described in the Test Example except for dispensing DMSO instead of a diluted solution with DMSO comprising the Present compound. Also, the term of “non-treated” in Test Example 10 and Test Example 11 means that a diluted solution with water of a formulation comprising the Present compound was not sprayed.
A plastic pot was filled with soil, wheat (cultivar: Apogee) was seeded thereto, and cultured in a greenhouse for 10 days. […]

Phakopsora pachyrhizi = assay: Test Example 17 Control Test Against Soybean Rust Fungus (spore germination, petri dish); type: cell-based; details: method according to Test Example 16
Protocol: as §1
An agar medium (agar concentration: 1.0%) (3 mL) was placed in a plastic petri dish having a diameter of 3.5 cm, and solidified. […] This plastic petri dish was cultured at 23° C. for 1 day, and then germinated spores of Phakopsora pachyrhizi were counted. […]

Botrytis cinerea = assay: Test Example 4 Control Test Against Cucumber Botrytis Rot Fungus (96 well titer plate growth); type: cell-based; details: 1 μL of 150 ppm DMSO solution + 150 μL complete medium, 18° C., 4 days, absorbance at 550 nm
Protocol: The term of “non-treated well” in Test Example 4, Test Example 5, and Test Example 6 represents a well wherein a test was carried out under the same conditions as those described in each Test Example except for dispensing DMSO instead of a diluted solution with DMSO comprising the Present compound. Also, the term of “non-treated” in Test Examples 15 to 17 represents a test which was carried out under the same conditions as those described in each Test Example except for dispensing DMSO instead of a diluted solution with DMSO comprising the Present compound. Also, the term of “non-treated leaf disk” in Test Example 7 represents a leaf disk wherein a test was carried out under the same conditions as those described in the Test Example except for dispensing DMSO instead of a diluted solution with DMSO comprising the Present compound. […]
The Present compound 24 was diluted with DMSO to obtain a diluted solution containing 150 ppm of the compound, and 1 μL of the diluted solution was dispensed into a titer plate (96 well), and thereto was then dispensed 150 μL of a complete medium to which spores of Botrytis cinerea were inoculated in advance. This plate was cultured at 18° C. for 4 days, thereby allowing Botrytis cinerea to undergo proliferation, and the absorbance at 550 nm of each well of the titer plate was then measured to determine a degree of growth of Botrytis cinerea. […]

| Compound | lesion area relative to the lesion area in the non-treated wheat (Septoria tritici) [%] | also measured |
| --- | --- | --- |
| O=S(=O)(c1ccccc1)n1ccc(-c2ccc(Cl)cc2)n1 [compound 4] | ≤ 30 |  |
| Cc1ccc(S(=O)(=O)n2ccc(-c3ccc4c(c3)OC(F)(F)O4)n2)cc1 [compound 61] |  | number of germinated spores relative to the non-treated plastic petri dish (Phakopsora pachyrhizi): ≤ 50% |
| Cn1cnc(S(=O)(=O)n2ccc(-c3cccc(C(=O)NC4CC4)c3)n2)c1 [compound 31] | ≤ 30 |  |
| COc1ccccc1S(=O)(=O)n1ccc(-c2cc(F)c(Br)c(F)c2)n1 [compound 24] |  | degree of growth relative to the degree of growth in the non-treated well (Botrytis cinerea): ≤ 50% |
